Measurements as given in paper PMC3694096, “Development of Novel In Vivo Chemical Probes to Address CNS Protein Kinase Involvement in Synaptic Dysfunction” (PLoS ONE, 2013).

What was measured:
[1] = system: p38MAPKs; design: method as in PMID 17079143; conditions: cited from earlier work
[2] = Dose escalation adverse event screen (SHIRPA based); type: in vivo; conditions: highest dose at which no adverse events are observed in dose escalation studies, mice
Text: Novel compounds were screened in vivo using a standard dose escalation screen in mice coupled with clinical observation and testing based on the SHIRPA mouse phenotype assay paradigm. To obtain insight into the potential for off-target activity with the largest known family of small molecule drug targets, G-protein coupled receptors (GPCRs), a cell-based functional screen of the final title compounds was done. The Millipore® GPCR Profiler screen employs the ChemiScreen GPCR stable cell line technology used for real-time calcium flux FLIPR assays on a panel of 158 GPCRs to detect both antagonists and agonists. The NCBI Entrez identifier for each GPCR is provided at the vendor site (www.millipore.com). Follow-up validation of any initial hits as being true positives or negatives was done as described above for protein kinases by testing the concentration dependence of any cellular effects. No validated hits were detected.

[3] = target: casein kinase 1δ (CK1δ), p38βMAPK and other kinases; conditions: cited from earlier work

SMILES: c1ccc(-c2cc(-c3ccncc3)c(N3CCN(c4ncccn4)CC3)nn2)cc1 [MW01-6-189WH]
- interaction with p38MAPKs [1]: does not interact with p38MAPKs

SMILES: CN1CCN(c2cc(-c3ccncc3)c(-c3ccccc3)nn2)CC1 [MW066]
- Dose Escalating Adverse Event Screen / Adverse Pharm Dose [2]: > 200 mg/kg

SMILES: c1ccc(-c2nnc(N3CCN(c4ncccn4)CC3)cc2-c2ccncc2)cc1 [MW069a]
- Dose Escalating Adverse Event Screen / Adverse Pharm Dose [2]: 60 mg/kg

SMILES: CN(C)c1cc(-c2ccncc2)c(-c2ccccc2)nn1 [MW105, N, N-dimethyl-6-phenyl-5-(pyridin-4-yl)pyridazin-3-amine]
- Dose Escalating Adverse Event Screen / Adverse Pharm Dose [2]: > 200 mg/kg

SMILES: CCN(CC)c1cc(-c2ccncc2)c(-c2ccccc2)nn1 [MW177]
- Dose Escalating Adverse Event Screen / Adverse Pharm Dose [2]: > 200 mg/kg

SMILES: CCCN(C)c1cc(-c2ccncc2)c(-c2ccccc2)nn1 [MW207]
- Dose Escalating Adverse Event Screen / Adverse Pharm Dose [2]: > 200 mg/kg

SMILES: C[S+]([O-])c1ccc(-c2nc(-c3ccncc3)c(-c3ccc(F)cc3)[nH]2)cc1 (centres unmarked) [SB203580]
- kinase cross-over [3]: inhibit casein kinase 1δ (CK1δ), p38βMAPK and other kinases

SMILES: COc1nccc(-c2c(-c3ccc(F)cc3)ncn2C2CCC(O)CC2)n1 (centres unmarked) [SB239063]
- kinase cross-over [3]: inhibit casein kinase 1δ (CK1δ), p38βMAPK and other kinases
